Measurements: US5208223A, “Phosphocholine derivative inhibitors of phospholipase A2” (American Cyanamid Company, priority 1992, dated 1993)
Values joined by “and” are separate entries in the source; they are usually repeats but may differ in a detail not shown here. Identical values can stand only once. Counter-ions that a name gives are not always drawn. Values belong to the compound of their own block, whether it stands above or below them.

How the values were obtained:
Assay type in all cases: biochemical
[1] = biological target: T1, porcine pancreatic PLA2 (Sus scrofa, UniProt P00592); test: MPLA2 assay: in vitro porcine pancreatic phospholipase A2, mixed micelle design, substrate 2 nM; settings: for % Inh. / IC50: subs. con. 2
T1 construct: purchased Sigma
T1 sequence (P00592 23-146): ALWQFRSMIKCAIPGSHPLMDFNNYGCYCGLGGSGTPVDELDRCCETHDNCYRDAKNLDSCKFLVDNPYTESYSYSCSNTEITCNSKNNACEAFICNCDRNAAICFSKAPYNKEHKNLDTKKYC
Procedure: (§1) Phospholipase A2 activity was measured by a radiochemical assay in which labeled synthetic phosphatidylcholine substrate is converted by porcine pancreatic PLA2 to free radiolabeled arachidonate and lyso PC. Radiolabeled arachidonate is extracted from the reaction mixture and separated from unreacted substrate by column chromatography or TLC. Radioactivity (cpm) in samples is quantitated by liquid scintillation counting. Specific details are as follows:
(§2) Labeled substrate(1-stearyl-2-^3 H-arachidonylphosphatidylcholine; Amersham, sp. act. 84 (uCi/mmole, 0.025 to 0.2 uCi/assay tube and unlabeled substrates (Avanti), in sufficient quantity to give 20,000 cpm to 50,000 cpm and 10 μM to 1,000 μM final concentration/assay tube are dried under a stream of nitrogen. The PLA2 and mPLA2 assays utilized a […] substrate concentration. The mHPLA2 and HPLA2 assays (vida infra) utilized a 10 μM substrate concentration and the SmPLA2 assay utilized a substrate concentration ranging from 100 to 1000 μm. The substrate is then redissolved in 0.1M tris-HCl buffer, pH 9.0 containing 10 mM CaCl2 and 10 mM Na taurocholate detergent. The mixture is sonicated in a Kontes Sonifier to yield a homogeneous dispersion. The "mixed" micellar substrate is clear. An aliquot is reserved for a cpm count (total substrate). The total reaction volume is 500 μL; siliconized glassware or plasticware is used throughout. Enzyme (Sigma, sp. act.>690 U/mg protein and preferably 900 U/mg protein) is diluted 1:750 or 1:1000 in 0.1M tris-HCl buffer, pH 9.0 (without Ca^++ and detergent). Enzyme dilution depends on substrate concentration and required enzyme concentration.
(§3) The substrate in buffer is kept on ice until the reaction is started. The reaction is started by adding 10 μL of diluted enzyme solution to 490 μL of micellar substrate solution. Samples are incubated in a 37° C. water bath for 15 minutes with gentle mixing. The reaction is terminated by the addition of 100 μL of 1M fresh trichloroacetic acid (TCA) solution and chilling the tubes on ice for 30 minutes.
(§4) Samples (600 μL) are extracted with 3 ml CHCl3 /MeOH (2:1) for thin layer chromatography or in hexane/ether (9:1) for column chromatography. The phases are separated by gentle centrifugation at 700 rpm×5'. The organic phase is recovered.
(§5) Labeled arachidonate extracted with CHCl3 /MeOH is separated on silica gel G TLC plates (Analtech). Twenty μL of a 2 mg/ml internal standard solution of arachidonic acid (Sigma) is combined with 2-3 ml of the organic phase. The entire mixture is dried under nitrogen and redissolved in 50 μL of CHCl3 /MeOH (2:1). A 20 μL sample is counted in 10 ml of Beckman Redi-solv HP and spotted on silica gel G plates. The solvent system used to develop the plate is CHCl3 /MeOH/13.5N NH3 /H2 O (70:30:4:1). Plates are developed in a glass chamber for 1-11/2 hours, air dried, and the spots visualized in an iodine vapor chamber. Standards of phosphatidylcholine, lyso PC, and arachidonic acid (Sigma) are made as 2 mg/ml stocks in CHCl3 /MeOH (2:1) and spotted on plates. Spots corresponding to arachidonate and phospholipid are scraped and counted in 10 ml Beckman Redi-Solv HP scintillation fluid.
(§6) Samples are extracted with hexane/ether and the upper organic phase recovered. An aliquot is applied to a Silicar CC4 (Malincrodt) column. Columns are prepared using 1 ml of a 1:1 slurry of silicar CC4 in hexane/ether in a Pasteur pipet (approx. 2 cm height). Columns are rinsed with 500 μL of hexane/ether before adding the sample (300-600 μL) to the column. Columns are eluted with a total of 6 ml of hexane/ether. The 6 ml sample is counted in 10 ml of Beckman Redi-Solv HP scintillation fluid.
(§7) or the phospholipase A2 assay, compounds are prepared as 1 mg/ml stock solutions in MeOH and diluted appropriately in PBS. […]

[2] = biological target: T1, porcine pancreatic PLA2; test: SMPLA2 assay: in vitro porcine pancreatic phospholipase A2, mixed micelle design, substrate 100 to 1000 μm
Procedure: as §1, §2, §3, §4, §5, §6, §7

[3] = biological target: T1, porcine pancreatic PLA2; test: MHPLA2 assay: in vitro porcine pancreatic phospholipase A2, mixed micelle design, [s]=10 μm; settings: for % Inh. / inhibition at 20 µg/mL: subs. con. 10; for inhibition at 50 µg/mL: dose 50 μ/ml
Procedure, shortened: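 Compounds dried with 10 μM 1-stearyl-2-[3H]-arachidonyl-PC substrate in mixed micelles (0.1M tris-HCl pH 9.0, 10 mM CaCl2, 10 mM Na taurocholate). Reaction started by adding enzyme and run 15 min at 37°C, then stopped with TCA. Released [3H]-arachidonate separated by TLC or column and counted by scintillation.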

[4] = biological target: T1, porcine pancreatic PLA2; test: PLA2 assay: in vitro porcine pancreatic phospholipase A2, preincubation of drug+enzyme, substrate 2 nM; settings: preincubation, subs. con. 2; for inhibition at 10 µg/mL: dose 10 μ/ml; for inhibition at 20 µg/mL: dose 20 μ/ml; for IC50: read-out: IC50 (converted)
Procedure, shortened: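 Porcine pancreatic PLA2 acting on 2 nM radiolabeled arachidonyl-phosphatidylcholine in mixed micelles (0.1 M Tris-HCl pH 9.0, 10 mM CaCl2, 10 mM Na taurocholate), 15 min at 37 °C with preincubation of drug and enzyme. Stopped with TCA; released 3H-arachidonate extracted, separated by TLC or column, counted by scintillation.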

[5] = biological target: T1, porcine pancreatic PLA2; test: HPLA2 assay: in vitro porcine pancreatic phospholipase A2, preincubation design, [s]=10 μm; settings: dose 10 μ/ml, subs. con. 10
Procedure: as §1, §2, §3, §4
as §5, with “The solvent system used to develop the plate is CHCl3 /MeOH/13.5N NH3 /H2 O (70:30:4:1).” left out
as §6
or the phospholipase A2 assay, compounds are prepared as 1 mg/ml stock solutions in MeOH and diluted appropriately in PBS.

[6] = dose 25 μ/ml, subs. con. 2, read-out: % Inh.
[7] = dose 10 μ/ml, subs. con. 2, read-out: % Inh.
[8] = dose 20 μ/ml, subs. con. 2, read-out: % Inh.
[9] = dose 10 μ/ml, subs. con. 10, read-out: % Inh. Avg.
[10] = dose 25 μ/ml, subs. con. 10, read-out: % Inh.
[11] = dose 25 μ/ml, subs. con. 10, read-out: % Inh. Avg.

Compound: CCCCCCCCCCCCCCCCOCC(COP(=O)([O-])OCC[N+](C)(C)C)OP(=O)(O)OCCCCCCCCCCCCCCCC (stereo not shown) [3,5,8,10-Tetraoxa-4,9-diphosphahexacosan-1-aminium, 7-[(hexa] [3,5,8,10-Tetraoxa-4,9-diphosphahexacosan-1-aminium, 7-[(hexadecyloxy)methyl]-4,9-dihydroxy-N,N,N-trimethyl-hydroxide, 4-(inner salt), 4,9-dioxide]
% Inh. [5]: STIM

Compound: CCCCCCCCCCCCCCCCOCC(COP(=O)([O-])OCC[N+](C)(C)C)CC(N)CCCCCCCCCCCCCCCC (stereo not shown) [7-(2-Aminooctadecyl)-4-hydroxy-N,N,N-trimethyl-3,5,9-trioxa-4-phosphapentacosanaminium, hydroxide, inner salt, 4-oxide]
inhibition at 10 µg/mL [1, 7]: 34%
inhibition at 10 µg/mL ([1]; dose 10 μ/ml, subs. con. 2, read-out: % Inh. Avg.): 65%
inhibition at 20 µg/mL [1, 8]: 72%
inhibition at 20 µg/mL ([1]; dose 20 μ/ml, subs. con. 2, read-out: % Inh. Avg.): 85%
% Inh. ([1]; dose 25 μ/ml): STIM
inhibition at 25 µg/mL [1, 6]: 92%
% Inh. Avg. ([2]; dose 25 μ/ml, subs. con. 100): 61%
inhibition at 25 µg/mL ([2]; dose 25 μ/ml, subs. con. 100): 63%
IC50 ([2]; subs. con. 100, read-out: IC50 (converted)): 20.6 µM and 34.1 µM
IC50 ([2]; subs. con. 100, read-out: IC50 Avg. (converted)): 27.3 µM
% Inh. ([3]; dose 10 μ/ml): 59%
inhibition at 10 µg/mL [3, 9]: 70%
inhibition at 20 µg/mL ([3]; dose 20 μ/ml): 97%
inhibition at 25 µg/mL [3, 10]: 78%
inhibition at 25 µg/mL [3, 11]: 77%
IC50 ([3]; subs. con. 10, read-out: IC50 (converted)): 1.91 µM and 7.09 µM and 8.73 µM
IC50 ([3]; subs. con. 10, read-out: IC50 Avg. (converted)): 5.87 µM
inhibition at 10 µg/mL ([4]; read-out: % Inh.): 95%
inhibition at 20 µg/mL ([4]; read-out: % Inh.): 95%
IC50 [4]: 0.682 µM

Compound: CCCCCCCCCCCCCCCCOCC(COP(=O)([O-])OCC[N+](C)(C)C)CSCCCCCCCCCCCCCCCC (stereo not shown) [7-[(Hexadecylthio)methyl]-4-hydroxy-N,N,N-trimethyl-3,5,9-trioxa-4-phosphapentacosan-1-aminium, hydroxide, inner salt, 4-oxide]
inhibition at 10 µg/mL [1, 7]: 59%
inhibition at 20 µg/mL [1, 8]: 69%
inhibition at 25 µg/mL [1, 6]: 79%
IC50 [1]: 7.61 µM
% Inh. ([3]; dose 10 μ/ml): STIM
% Inh. ([3]; dose 20 μ/ml): STIM
inhibition at 25 µg/mL [3, 10]: 81%
inhibition at 10 µg/mL ([4]; read-out: % Inh. Avg.): 26%
inhibition at 20 µg/mL ([4]; read-out: % Inh.): 61%
IC50 [4]: 4.75 µM

Compound: CCCCCCCCCCCCCCCC[C@]1(COP(=O)([O-])OCC[N+](C)(C)C)CC(=O)N1 [(2R)-2-[[[(2-Hexadecyl-4-oxo-2-azetidinyl)methoxy]hydroxyphosphinyl]oxy]-N,N,N-trimethylethanaminium, hydroxide, inner salt]
% Inh. ([1]; dose 10 μ/ml): STIM
% Inh. ([1]; dose 20 μ/ml): STIM
% Inh. ([3]; dose 10 μ/ml): STIM
inhibition at 20 µg/mL ([3]; dose 20 μ/ml): 0%
inhibition at 25 µg/mL [3, 10]: 26%
inhibition at 10 µg/mL ([4]; read-out: % Inh.): 82%
inhibition at 20 µg/mL ([4]; read-out: % Inh.): 79%
IC50 [4]: 2.85 µM

Results, then the compound that gave them:

inhibition at 25 µg/mL [1, 6]: 100%
% Inh. ([2]; dose 10 μ/ml, subs. con. 100): STIM
inhibition at 10 µg/mL ([2]; dose 10 μ/ml, subs. con. 500): 7%
inhibition at 10 µg/mL ([2]; dose 10 μ/ml, subs. con. 1000): 22%
% Inh. ([2]; dose 25 μ/ml, subs. con. 100): STIM
inhibition at 25 µg/mL ([2]; dose 25 μ/ml, subs. con. 500): 29%
inhibition at 25 µg/mL ([2]; dose 25 μ/ml, subs. con. 1000): 3%
% Inh. ([2]; dose 50 μ/ml, subs. con. 100): STIM
% Inh. ([2]; dose 50 μ/ml, subs. con. 500): STIM
% Inh. ([2]; dose 50 μ/ml, subs. con. 1000): STIM
% Inh. ([3]; dose 10 μ/ml): STIM
% Inh. ([3]; dose 25 μ/ml): STIM
inhibition at 10 µg/mL ([4]; read-out: % Inh.): 21%
inhibition at 20 µg/mL ([4]; read-out: % Inh.): 41%
Compound: CCCCCCCCCCCCCCCCOCC(COP(=O)([O-])OCC[N+](C)(C)C)OP(=O)(O)OCCCCC (single isomer, unassigned; less polar) [3,5,8,10-Tetraoxa-4,9-diphosphapentadecan-1-aminium, 7-[(hexadecyloxy)methyl]-4,9-dihydroxy-N,N,N-trimethyl-, hydroxide, 4-(inner salt), 4,9-dioxide, less polar isomer]

inhibition at 10 µg/mL [1, 7]: 82%
inhibition at 20 µg/mL [1, 8]: 82%
IC50 [1]: 1.81 µM
inhibition at 10 µg/mL ([2]; dose 10 μ/ml, subs. con. 100): 8%
inhibition at 10 µg/mL ([2]; dose 10 μ/ml, subs. con. 500): 0%
inhibition at 10 µg/mL ([2]; dose 10 μ/ml, subs. con. 1000): 5%
inhibition at 25 µg/mL ([2]; dose 25 μ/ml, subs. con. 100): 1%
inhibition at 25 µg/mL ([2]; dose 25 μ/ml, subs. con. 500): 0%
inhibition at 25 µg/mL ([2]; dose 25 μ/ml, subs. con. 1000): 10%
inhibition at 50 µg/mL ([2]; dose 50 μ/ml, subs. con. 100): 18%
inhibition at 50 µg/mL ([2]; dose 50 μ/ml, subs. con. 500): 8%
inhibition at 50 µg/mL ([2]; dose 50 μ/ml, subs. con. 1000): 6%
inhibition at 10 µg/mL [3, 9]: 8%
inhibition at 25 µg/mL [3, 11]: 10%
inhibition at 50 µg/mL ([3]; subs. con. 10, read-out: % Inh.): 37%
inhibition at 50 µg/mL ([3]; subs. con. 10, read-out: % Inh. Avg.): 137%
Compound: CCCCCCCCCCCCCCCCOCC(COP(=O)([O-])OCC[N+](C)(C)C)OC(=O)C(Br)CCCCCCCCCCCCCCCC (stereo not shown) [10-Bromo-7-[(hexadecyloxy)methyl]-4-hydroxy-N,N,N-trimethyl-9-oxo-3,5,8-trioxa-4-phosphahexacosan-1-aminium, hydroxide, inner salt, 4-oxide]

inhibition at 25 µg/mL [1, 6]: 93%
inhibition at 25 µg/mL [3, 10]: 35%
inhibition at 20 µg/mL ([4]; read-out: % Inh.): 24%
inhibition at 25 µg/mL ([4]; dose 25 μ/ml, read-out: % Inh.): 93%
Compound: CCCCCCCCCCCCCCCCCC(=O)NCC(CO)COCCCCCCCCCCCCCCCC (stereo not shown) [N-[3-(Hexadecyloxy)-2-hydroxymethyl)propyl]octadecanamide]
